Assay results taken from PMC11620482, “Phase 1 drug-drug interaction study to assess the effect of CYP3A4 inhibition and pan-CYP induction on the pharmacokinetics and safety of fosmanogepix in healthy participants” (Antimicrobial Agents and Chemotherapy, 2024).
Read-outs that look alike come from different tables or passages of the source.

Key:
[1] = system: CYP2E1; conditions: cited from earlier work
[2] = system: human CYPs; conditions: cited from earlier work
[3] = system: phosphatidylinositol glycan anchor biosynthesis class W (PIGW); parameters: method as in PMID 33105672, PMID 34626339; conditions: cited from earlier work
[4] = system: CYP2D6; conditions: cited from earlier work
[5] = system: CYP2C8; conditions: cited from earlier work
[6] = system: CYP2C19; conditions: cited from earlier work
[7] = mice infected with C. albicans and C. glabrata; cited from earlier work
[8] = system: CYP2A6; conditions: cited from earlier work
[9] = system: CYP2B6; conditions: cited from earlier work
[10] = system: CYP1A2; conditions: cited from earlier work
[11] = system: CYP3A4; conditions: cited from earlier work
[12] = Plasma pharmacokinetics of MGX and FMGX (noncompartmental analysis), phase 1 fixed-sequence DDI study with itraconazole or rifampin; assay type: in vivo, human; conditions: for Vd: read-out: MGX Vz; for Tmax: median (range)
Procedure: In cohort 1, MGX plasma samples were collected at specified time points daily on days 1–4, once every 2 days on days 6–14, daily for 3 days from days 18 to 20, once every 2 days from days 21 to 29, and then on day 31, while itraconazole samples were collected at specified time points on days 19, 25, and 31. […] PK parameters were calculated using noncompartmental analysis from the plasma concentration-time data for MGX and FMGX. Primary PK parameters were maximum observed plasma concentration (Cmax), AUC from time 0 to infinity (AUC0-inf), and AUC up to time t (AUC0-t, where t was the last time point with concentrations above the lower limit of quantitation). […] Secondary PK parameters were time to attain Cmax (Tmax), AUC from time 0 to 23 hours (AUC0-23), terminal elimination half-life after the last dosing on the day (t1/2), clearance (CL), volume of distribution at terminal phase (Vz), and terminal phase rate constant after the last dosing on the day (λz).

[13] = system: CYP2C9; conditions: cited from earlier work
[14] = system: recombinant human CYP (rCYP) enzymes; conditions: cited from earlier work

For `Nc1ncccc1-c1cc(Cc2ccc(COc3ccccn3)cc2)no1` [MGX, manogepix], the “Time-dependent inhibition of CYP2E1” value [1] is given as “no time-dependent inhibition”, the “Reversible inhibition, other CYP isoforms” value [2] is given as “Weak or no inhibition” and the “Inhibition of PIGW, closest mammalian ortholog of GWT1” value [3] is given as “not inhibited”. For the same molecule, the “Reversible inhibition of CYP2D6” value [4] was “observed”, the “Time-dependent inhibition of CYP2D6” value [4] was “no time-dependent inhibition” and the “Reversible inhibition of CYP2C8” value [5] was “observed”. The “Time-dependent inhibition of CYP2C8” value [5] was “no time-dependent inhibition”, the “Reversible inhibition of CYP2C19” value [6] was “observed” and the “Time-dependent inhibition of CYP2C19” value [6] was “no time-dependent inhibition”. The “Exposure (AUC) and half-life of MGX after pre-administration of 1-aminobenzotriazole” value [7] was “increase”, the “Time-dependent inhibition of CYP2A6” value [8] was “no time-dependent inhibition” and the “Reversible inhibition of CYP2B6” value [9] was “observed”. For the same molecule, the “Time-dependent inhibition of CYP2B6” value [9] was “weak time-dependent inhibition”, the “Reversible inhibition of CYP1A2” value [10] was “observed” and the “Time-dependent inhibition of CYP1A2” value [10] was “no time-dependent inhibition”. The “Reversible inhibition of CYP3A4” value [11] was “observed”, the “Time-dependent inhibition of CYP3A4” value [11] was “weak time-dependent inhibition” and the “MGX Vz” value ([12]; FMGX only 1000 mg BID IV, D1, Cohort 2, n = 17, geometric mean (geometric %CV)) was 190 (40.8) L. It also gave an AUC(0-inf) ([12]; human, in vivo, FMGX 500 mg BID IV D18 + ITR 200 mg QD PO D15-30, Cohort 1, n = 16, geometric mean (geometric %CV), read-out: MGX AUC(0-inf)) of 458 µg·h/mL, an AUC(0-t) ([12]; human, in vivo, FMGX 500 mg BID IV D18 + ITR 200 mg QD PO D15-30, Cohort 1, n = 16, geometric mean (geometric %CV), read-out: MGX AUC(0-t)) of 421 µg·h/mL and a Cmax ([12]; human, in vivo, FMGX 500 mg BID IV D18 + ITR 200 mg QD PO D15-30, Cohort 1, n = 16, geometric mean (geometric %CV), read-out: MGX Cmax) of 7060 ng/mL. The Vd ([12]; human, in vivo, FMGX 500 mg BID IV D18 + ITR 200 mg QD PO D15-30, Cohort 1, n = 16, geometric mean (geometric %CV)) was 195 L, the AUC(0-inf) ([12]; human, in vivo, FMGX 500 mg BID IV D18 + ITR 200 mg QD PO D15–30, Cohort 1, n = 16, read-out: MGX AUC(0-inf), least squares geometric mean) was 458 µg·h/mL and the AUC(0-t) ([12]; human, in vivo, FMGX 500 mg BID IV D18 + ITR 200 mg QD PO D15–30, Cohort 1, n = 16, read-out: MGX AUC(0-t), least squares geometric mean) was 421 µg·h/mL. It also gave a Cmax ([12]; human, in vivo, FMGX 500 mg BID IV D18 + ITR 200 mg QD PO D15–30, Cohort 1, n = 16, read-out: MGX Cmax, least squares geometric mean) of 7060 ng/mL, an AUC(0-inf) ([12]; human, in vivo, FMGX 1,000 mg BID IV D24 + RIF 600 mg QD PO D15–33, Cohort 2, n = 17, geometric mean (geometric %CV), read-out: MGX AUC(0-inf)) of 450 µg·h/mL and an AUC(0-t) ([12]; human, in vivo, FMGX 1,000 mg BID IV D24 + RIF 600 mg QD PO D15–33, Cohort 2, n = 17, geometric mean (geometric %CV), read-out: MGX AUC(0-t)) of 436 µg·h/mL. The Cmax ([12]; human, in vivo, FMGX 1,000 mg BID IV D24 + RIF 600 mg QD PO D15–33, Cohort 2, n = 17, geometric mean (geometric %CV), read-out: MGX Cmax) was 12100 ng/mL, the Vd ([12]; human, in vivo, FMGX 1,000 mg BID IV D24 + RIF 600 mg QD PO D15–33, Cohort 2, n = 17, geometric mean (geometric %CV)) was 205 L and the AUC(0-inf) ([12]; human, in vivo, FMGX 1,000 mg BID IV D24 + RIF 600 mg QD PO D15–33, Cohort 2, n = 17, read-out: MGX AUC(0-inf), least squares geometric mean) was 450 µg·h/mL. For the same molecule, the AUC(0-t) ([12]; human, in vivo, FMGX 1,000 mg BID IV D24 + RIF 600 mg QD PO D15–33, Cohort 2, n = 17, read-out: MGX AUC(0-t), least squares geometric mean) was 436 µg·h/mL, the Cmax ([12]; human, in vivo, FMGX 1,000 mg BID IV D24 + RIF 600 mg QD PO D15–33, Cohort 2, n = 17, read-out: MGX Cmax, least squares geometric mean) was 12100 ng/mL and the half-life ([12]; human, in vivo, Terminal elimination half-life for MGX) was roughly 78 h. For the same molecule, the AUC(0-inf) ([12]; human, in vivo, iv, 500 mg, FMGX only 500 mg BID IV, D1, Cohort 1, n = 16, geometric mean (geometric %CV), read-out: MGX AUC(0-inf)) was 460 µg·h/mL, the AUC(0-t) ([12]; human, in vivo, iv, 500 mg, FMGX only 500 mg BID IV, D1, Cohort 1, n = 16, geometric mean (geometric %CV), read-out: MGX AUC(0-t)) was 429 µg·h/mL and the Cmax ([12]; human, in vivo, iv, 500 mg, FMGX only 500 mg BID IV, D1, Cohort 1, n = 16, geometric mean (geometric %CV), read-out: MGX Cmax) was 6940 ng/mL. For the same molecule, the Vd ([12]; human, in vivo, iv, 500 mg, FMGX only 500 mg BID IV, D1, Cohort 1, n = 16, geometric mean (geometric %CV)) was 185 L, the AUC(0-inf) ([12]; human, in vivo, iv, 500 mg, FMGX only 500 mg BID IV, D1, Cohort 1, n = 16, read-out: MGX AUC(0-inf), least squares geometric mean) was 460 µg·h/mL and the AUC(0-t) ([12]; human, in vivo, iv, 500 mg, FMGX only 500 mg BID IV, D1, Cohort 1, n = 16, read-out: MGX AUC(0-t), least squares geometric mean) was 429 µg·h/mL. For the same molecule, the Cmax ([12]; human, in vivo, iv, 500 mg, FMGX only 500 mg BID IV, D1, Cohort 1, n = 16, read-out: MGX Cmax, least squares geometric mean) was 6940 ng/mL, the clearance ([12]; human, in vivo, iv, 500 mg, MGX CL) was 27.7 mL/min and the half-life ([12]; human, in vivo, iv, 500 mg, MGX t1/2) was 77.3 h. For the same molecule, the “MGX CL” value ([12]; human, in vivo, iv, 1000 mg) was 1,862 (18.5) mL/h, the AUC(0-inf) ([12]; human, in vivo, iv, 1000 mg, FMGX only 1000 mg BID IV, D1, Cohort 2, n = 17, geometric mean (geometric %CV), read-out: MGX AUC(0-inf)) was 822 µg·h/mL and the AUC(0-t) ([12]; human, in vivo, iv, 1000 mg, FMGX only 1000 mg BID IV, D1, Cohort 2, n = 17, geometric mean (geometric %CV), read-out: MGX AUC(0-t)) was 772 µg·h/mL. For the same molecule, the Cmax ([12]; human, in vivo, iv, 1000 mg, FMGX only 1000 mg BID IV, D1, Cohort 2, n = 17, geometric mean (geometric %CV), read-out: MGX Cmax) was 13900 ng/mL, the AUC(0-inf) ([12]; human, in vivo, iv, 1000 mg, FMGX only 1,000 mg BID IV, D1, Cohort 2, n = 17, read-out: MGX AUC(0-inf), least squares geometric mean) was 822 µg·h/mL and the AUC(0-t) ([12]; human, in vivo, iv, 1000 mg, FMGX only 1,000 mg BID IV, D1, Cohort 2, n = 17, read-out: MGX AUC(0-t), least squares geometric mean) was 772 µg·h/mL. For the same molecule, the Cmax ([12]; human, in vivo, iv, 1000 mg, FMGX only 1,000 mg BID IV, D1, Cohort 2, n = 17, read-out: MGX Cmax, least squares geometric mean) was 13900 ng/mL, the half-life ([12]; human, in vivo, iv, 1000 mg, MGX t1/2) was 70.7 h and the Tmax ([12]; human, in vivo, FMGX 500 mg BID IV D18 + ITR 200 mg QD PO D15-30, Cohort 1, n = 16) was 12 h. The Tmax ([12]; human, in vivo, FMGX only 500 mg BID IV, D1, Cohort 1, n = 16) was 12 h, the Tmax ([12]; human, in vivo, FMGX only 1000 mg BID IV, D1, Cohort 2, n = 17) was 12 h and the “Reversible inhibition of CYP2C9” value [13] was “observed”. For the same molecule, the “Time-dependent inhibition of CYP2C9” value [13] was “no time-dependent inhibition” and the “Enzymes involved in formation of MGX-derived metabolites” value [14] was “multiple recombinant human CYP (rCYP) enzymes were involved”.
